Assay results: patent US10654845B2, “2-(het)aryl-substituted fused bicyclic heterocycle derivatives as pesticides” (BAYER CROPSCIENCE AKTIENGESELLSCHAFT, priority 2015, dated 2020)

Columns and labels:
[1] = system: Boophilus microplus; experiment: Boophilus microplus injection test; type: in vivo; details: 20 μg/animal, assessed after 7 days
Experimental: Boophilus microplus-Injection Test
(§1) Solvent: dimethyl sulphoxide
To produce a suitable preparation of active compound, 10 mg of active compound are mixed with 0.5 ml of solvent and the concentrate is diluted with solvent to the desired concentration.
1 μl of the active compound solution is injected into the abdomen of 5 engorged adult female cattle ticks (Boophilus microplus). The animals are transferred into dishes and kept in a climate-controlled room.
Efficacy is assessed after 7 days by laying of fertile eggs. Eggs which are not visibly fertile are stored in a climate-controlled cabinet until the larvae hatch after about 42 days. An efficacy of 100% means that none of the ticks has laid any fertile eggs; 0% means that all the eggs are fertile.

[2] = system: Aedes aegypti strain MONHEIM; experiment: whole plant or invertebrate; type: in vivo; details: read-out: mortality in %
Experimental: Aedes Test (AEDSAE Surface Treatment)
(§2) Solvent: acetone+2000 ppm rapeseed oil methyl ester (RME)
(§3) To produce an appropriate active compound formulation, the active compound is dissolved in the solvent (2 mg/ml). The active compound formulation is pipetted onto a glazed tile and, after it has dried off, adult mosquitoes of the species Aedes aegypti strain MONHEIM are placed onto the treated tile. The exposure time is 30 minutes.
(§4) 24 hours after contact with the treated surface, mortality in % is determined. 100% means that all mosquitoes have been killed; 0% means that none of the mosquitoes have been killed.

[3] = system: Meloidogyne incognita; experiment: Meloidogyne incognita test; type: in vivo; details: 20 ppm, after 14 days, formation of galls
Experimental: Meloidogyne incognita-Test
Solvent: 125.0 parts by weight of acetone
To produce a suitable preparation of active compound, 1 part by weight of active compound is mixed with the stated amount of solvent and the concentrate is diluted with water to the desired concentration.
Vessels are filled with sand, active compound solution, an egg/larvae suspension of the southern root-knot nematode (Meloidogyne incognita) and lettuce seeds. The lettuce seeds germinate and the plants develop. The galls develop on the roots.
After 14 days, the nematicidal efficacy in % is determined by the formation of galls. 100% means that no galls were found; 0% means that the number of galls on the treated plants corresponds to the untreated control.

[4] = system: Lucilia cuprina; experiment: Lucilia cuprina test; type: in vivo; details: 100 ppm, after 2 days, L1 larvae
Experimental: as §1
(§5) To produce a suitable preparation of active compound, 10 mg of active compound are mixed with 0.5 ml of dimethyl sulphoxide, and the concentrate is diluted with water to the desired concentration.
About 20 L1 larvae of the Australian sheep blowfly (Lucilia cuprina) are transferred into a test vessel containing minced horsemeat and the active compound preparation of the desired concentration.
After 2 days, the kill in % is determined. 100% means that all the larvae have been killed; 0% means that no larvae have been killed.

[5] = system: Phaedon cochleariae; experiment: Phaedon cochleariae spray test; type: in vivo; details: 500 g/ha, after 7 days, beetle larvae killed
In short: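 Compound dissolved in acetone/dimethylformamide and diluted with water containing 1000 ppm alkylaryl polyglycol ether emulsifier to test concentrations, applied as a spray. Efficacy (% beetle larvae killed) assessed after 7 days.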

[6] = system: Ctenocephalides felis; experiment: Ctenocephalides felis oral test; type: in vivo; details: 100 ppm, after 2 days
Experimental: Ctenocephalides felis-Oral Test
as §1
To produce a suitable preparation of active compound, 10 mg of active compound are mixed with 0.5 ml of dimethyl sulphoxide. Dilution with citrated cattle blood gives the desired concentration.
About 20 unfed adult cat fleas (Ctenocephalides felis) are placed into a chamber which is closed at the top and bottom with gauze. A metal cylinder whose bottom end is closed with parafilm is placed onto the chamber. The cylinder contains the blood/active compound preparation, which can be imbibed by the fleas through the parafilm membrane.
After 2 days, the kill in % is determined. 100% means that all of the fleas have been killed; 0% means that none of the fleas have been killed.

[7] = system: Anopheles gambiae strain RSPH (homozygot kdr); experiment: Anopheles test (ANPHGB surface treatment); type: in vivo; details: 24 hours after contact
Experimental: Anopheles Test (ANPHGB Surface Treatment)
as §2
as §3, with “Anopheles gambiae” for “Aedes aegypti”, “RSPH (homozygot kdr)” for “MONHEIM”
as §4

[8] = system: Myzus persicae; experiment: Myzus persicae spray test (Chinese cabbage leaf discs); type: in vivo; details: Myzus persicae, foliar, 144 h; 500 g/ha, after 6 days, aphids killed; read-out: efficacy in %
In short: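 Chinese cabbage leaf discs infested with all stages of green peach aphid were sprayed with compound in acetone/DMF diluted with water containing 1000 ppm emulsifier. Efficacy in % was scored after 6 days, where 100% means all aphids killed and 0% none.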

[9] = log P by HPLC on reversed-phase column (C18), EEC Directive 79/831 Annex V.A8; details: for chromatographic logP: reversed-phase HPLC column (C18)
Description: Called log P (HCOOH) in the table.
Called log P (neutral) in the table.

[10] = system: Anopheles funestus strain FUMOZ-R; experiment: whole plant or invertebrate; type: in vivo; details: read-out: mortality in %
Experimental: Anopheles Test (ANPHFU Surface Treatment)
as §2
as §3, with “Anopheles funestus” for “Aedes aegypti”, “FUMOZ-R (Hunt et al., Med Vet Entomol. 2005 September; 19(3):271-5)” for “MONHEIM”
as §4

[11] = system: Musca domestica; experiment: Musca domestica test; type: in vivo; details: 100 ppm, after 2 days, adult houseflies
Experimental: as §1, §5
Vessels containing a sponge treated with sugar solution and the active compound preparation of the desired concentration are populated with 10 adult houseflies (Musca domestica).
After 2 days, the kill in % is determined. 100% means that all of the flies have been killed; 0% means that none of the flies have been killed.

[12] = system: Ctenocephalides felis; experiment: Ctenocephalides felis in vitro contact tests with adult cat fleas; type: in vivo; details: 5 μg/cm^2 (500 g/ha), after 48 h
Experimental: Ctenocephalides felis—In Vitro Contact Tests with Adult Cat Fleas
For the coating of the test tubes, 9 mg of active compound are first dissolved in 1 ml of acetone p.a. and then diluted to the desired concentration with acetone p.a. 250 μl of the solution are distributed homogeneously on the inner walls and the base of a 25 ml test tube by turning and rocking on an orbital shaker (rocking rotation at 30 rpm for 2 h). With 900 ppm active compound solution and internal surface 44.7 cm^2, given homogeneous distribution, an area-based dose of 5 μg/cm^2 is achieved.
After the solvent has evaporated off, the tubes are populated with 5-10 adult cat fleas (Ctenocephalides felis), sealed with a perforated plastic lid and incubated in a horizontal position at room temperature and ambient humidity. After 48 h, efficacy is determined. To this end, the test tubes are stood upright and the fleas are knocked to the base of the tube. Fleas which remain motionless at the base or move in an uncoordinated manner are considered to be dead or moribund.
100% efficacy means that all the fleas were dead or moribund. 0% efficacy means that no fleas were harmed.

[13] = system: Myzus persicae; experiment: Myzus persicae spray test (bell pepper plants); type: in vivo; details: 100 ppm, after 6 days
Experimental: Myzus persicae Spray Test
Solvent: 7 parts by weight of dimethylformamide
Emulsifier: alkylaryl polyglycol ether
To produce a suitable preparation of active compound, 1 part by weight of active compound is dissolved using the stated parts by weight of solvent and made up with water containing an emulsifier concentration of 1000 ppm until the desired concentration is attained. To produce further test concentrations, the preparation is diluted with emulsifier-containing water. If the addition of ammonium salts or/and penetrants is required, these are each added in a concentration of 1000 ppm to the formulation solution.
Bell pepper plants (Capsicum annuum) severely infested with the green peach aphid (Myzus persicae) are treated by spraying with the active compound preparation in the desired concentration.
After 6 days, the kill in % is determined. 100% means that all of the aphids have been killed; 0% means that none of the aphids have been killed.

SMILES | efficacy (laying of fertile eggs) [1] | mortality at 20 mg/m2 [2] | mortality at 100 mg/m2 [2] | nematicidal efficacy in % [3] | kill in % [4] | pest or weed control at 500 g/ha ([5]; Phaedon cochleariae, 168 h, read-out: efficacy in %) | kill in % [6] | mortality at 20 mg/m2 ([7]; 20 mg/m^2, 30 minutes exposure) | mortality at 100 mg/m2 ([7]; 100 mg/m^2, 30 minutes exposure) | pest or weed control at 500 g/ha [8] | chromatographic logP ([9]; pH 2.7, logP-acidic, LC-MS acidic range, pH 2.7 (HCOOH), C18, 55° C.) | chromatographic logP ([9]; pH 7.8, log P (neutral), preparation examples, neutral range, pH 7.8) | chromatographic logP ([9]; pH 7.8, logP-neutral, LC-MS neutral range, pH 7.8, C18, 55° C.) | mortality at 20 mg/m2 [10] | mortality at 100 mg/m2 [10] | kill in % [11] | efficacy in % [5] | logP-acidic ([9]; pH 2.7) | efficacy (dead or moribund fleas) [12] | kill in % [13]
CCS(=O)(=O)c1ccc(N)nc1-c1nc2cc(C(F)(F)F)ncc2n1C [Example 14, 5-(Ethylsulphonyl)-6-[3-methyl-6-(trifluoromethyl)-3H-imidazo[4,5-c]pyridin-2-yl]pyridine-2-amine] | 80% | 80 to 100% | 80 to 100% | 90% | 100% | 100% | 100% | 80 to 100% | 80 to 100% | 90% | 1.63 | 1.62 | 1.62 | 80 to 100% | 80 to 100% | – | – | – | – | –
CCS(=O)(=O)c1ccc(NC(=O)C2CC2)nc1-c1nc2cc(C(F)(F)F)ncc2n1C [Example 22] | 80% | – | – | – | 90% | – | 100% | – | – | – | – | – | – | – | – | 100% | 100% | 2.43 | 100% | 100%
